Results taken from publication PMC5708526, “Targeting secondary protein complexes in drug discovery: studying the druggability and chemical biology of the HSP70/BAG1 complex” (Chemical Communications (Cambridge, England), 2017).
Entries after “also recorded” stand apart in the source; their conditions may differ. Read-outs that look alike come from different tables or passages of the source.

Assays:
HSP72 = target: T1, HSP72 (Homo sapiens, UniProt P0DMV8); assay: Fluorescence polarisation probe KD determination with full-length HSP72; type: binding
T1 construct: made in house
Procedure: To determine the binding affinity of bisaryl FP-probe 11 for HSP72, increasing concentrations of the protein were titrated against a fixed concentration (10 nM) of the FP-probe. […] We speculated that this decrease in apparent KD was due to the slow hydrolysis of the ATP-probe to ADP-ATTO-488 + Pi. Although HSP72 has low intrinsic ATPase activity,[8] the high enzyme concentration could catalyse hydrolysis over the time-frame of the assay, with the initial KD values reflective of the known modest affinity of ATP for HSP70, whilst the final KD value was consistent with the higher affinity ADP ligand.[14] […]
TRIS Tris(hydroxymethyl)aminomethane
General Information: Unless otherwise stated the aqueous assay buffer contained 50 mM TRIS base pH 7.4, 150 mM NaCl, 6 mM MgCl2, 1 mM DTT, 0.1% (wt/wt) CHAPS. The assay was conducted using 384 Plus F ProxiPlates (PerkinElmer) with a final assay volume of 10 μL. Plates were centrifuged at 1000 rpm for 1 minute prior to incubation and read using an 2103 Envision Multilable Plate Reader. Excitation and emission wavelengths used for green probes were 480 nm and 535 nm, respectively.
Fluorescence polarisation was measured in units of millipolarization (mP). All experiments were performed in triplicate, unless otherwise stated. Data were plotted and analysed using GraphPad Prism 6, graphical data represents the mean ± standard error of the mean for a single representative experiment. ATP-derived fluorescent probes (1.0 mM in aqueous) were purchased from Jena Bioscience. Human BAG-1M (10.9 μM in 20 mM TRIS base pH 7.4, 100 mM NaCl, 1 mM DTT, 1% (v/v) glycerol) was purchased from Enzo Life Sciences. […]
Fluorescence polarisation values for the tracer ± protein were plotted using GraphPad prism 6.
Fluorescent probe KD determination: To each well, 5 μL of probe molecule (20 nM in assay buffer) and increasing concentrations of HSP70 protein (5 μL, two-fold dilution series) were added. Fluorescence polarisation values for tracer control wells (10 nM probe in assay buffer only) were subtracted from each data point prior to data analysis. KD determination was performed using non-linear regression analysis (GraphPad Prism 6, one site–specific binding model). […]
BAG-1 titration: To each well, ATP-ATTO488 and HSP70 at two times their final concentration (5 µL in assay buffer) was added and the plate incubated in the dark for 16 hours. Increasing concentrations of BAG1 protein (5 μL, two-fold dilution series in 20 […]
(1 picture or pasted object on this page, not shown here)

HSP72/BAG1 complex = target: T2, HSP72/BAG1 complex (Homo sapiens, UniProt P0DMV8); assay: FP probe KD determination with BAG1; type: binding
T2 construct: purchased Enzo Life Sciences (BAG-1M only)
Procedure: To assess what effect the secondary HSP72/BAG1 complex had on the apparent affinity of the non-nucleotide bisaryl-ATTO-488 FP-probe 11, we carried out a similar BAG1 study. […] To confirm that the binding of BAG1 to HSP72 was not mutually exclusive, we screened the nucleotides ADP and ATP in a competition assay with bisaryl-ATTO-488 11 and HSP72 at a 50% bound fraction, with and without a saturating concentration of BAG1 (700 nM) (Fig. S7, ESI ^†). […]
mM TRIS base pH 7.4, 100 mM NaCl, 1 mM DTT, 1% (v/v) glycerol) or BAG1 replacement buffer (5 μL, 20 mM TRIS base pH 7.4, 100 mM NaCl, 1 mM DTT, 1% (v/v) glycerol) was added to the corresponding wells of the assay plate. Fluorescence polarisation values for probe and HSP72 ± BAG1 were plotted using GraphPad prism 6.
KD determination with BAG1: To each well, 5 μL containing probe molecule (20 nM in assay buffer) and BAG1 protein (1.4 μM in assay buffer) and increasing concentrations of HSP70 protein (5 μL, two-fold dilution series) were added. Fluorescence polarisation values for tracer control wells (10 nM probe in assay buffer only) were subtracted from each data point prior to data analysis. KD determination was performed using non-linear regression analysis (GraphPad Prism 6, one site–specific binding […]

T2 sequence (P0DMV8 whole entry): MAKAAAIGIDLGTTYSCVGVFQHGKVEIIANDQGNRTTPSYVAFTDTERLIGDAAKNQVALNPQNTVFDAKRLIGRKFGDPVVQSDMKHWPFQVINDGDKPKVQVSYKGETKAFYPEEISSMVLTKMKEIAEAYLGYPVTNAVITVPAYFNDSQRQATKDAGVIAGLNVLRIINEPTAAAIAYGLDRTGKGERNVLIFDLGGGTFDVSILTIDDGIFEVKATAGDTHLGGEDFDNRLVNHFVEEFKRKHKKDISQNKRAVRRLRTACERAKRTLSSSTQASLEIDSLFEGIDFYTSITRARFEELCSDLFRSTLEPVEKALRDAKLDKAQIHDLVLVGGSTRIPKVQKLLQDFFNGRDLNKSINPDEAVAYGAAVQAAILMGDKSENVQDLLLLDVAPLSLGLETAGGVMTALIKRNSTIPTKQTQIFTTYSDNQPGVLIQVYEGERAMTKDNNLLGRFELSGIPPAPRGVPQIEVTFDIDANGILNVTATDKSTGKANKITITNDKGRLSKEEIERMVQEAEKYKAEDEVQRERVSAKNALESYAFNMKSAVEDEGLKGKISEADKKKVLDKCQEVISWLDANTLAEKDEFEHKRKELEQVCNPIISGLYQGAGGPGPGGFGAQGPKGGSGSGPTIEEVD
T2 sequence (Q99933 72-345 partner limits assumed): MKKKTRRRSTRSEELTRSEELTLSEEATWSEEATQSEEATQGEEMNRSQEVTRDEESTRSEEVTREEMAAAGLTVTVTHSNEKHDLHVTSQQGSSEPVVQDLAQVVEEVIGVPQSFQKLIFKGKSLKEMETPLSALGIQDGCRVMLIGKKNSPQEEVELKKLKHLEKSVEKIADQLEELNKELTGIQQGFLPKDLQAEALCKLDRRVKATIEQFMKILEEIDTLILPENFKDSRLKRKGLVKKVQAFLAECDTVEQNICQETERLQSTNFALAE
T1 sequence (P0DMV8 whole entry): as the sequence (P0DMV8 whole entry) above

CN(CCCC(=O)NCCCCCCNc1ncnc2c1nc(NCc1ccc3ncccc3c1)n2[C@@H]1O[C@H](COCc2ccc(C(F)(F)F)cc2)[C@@H](O)[C@H]1O)C(=O)c1ccccc1-c1c2ccc(=N)c(S(=O)(=O)O)c-2oc2c(S(=O)(=O)O)c(N)ccc12 [compound 11] was tested, and the “time-dependency of affinity for HSP72” value (HSP72) was “no apparent time-dependency”, the pKD (HSP72; 10 nM probe, 0.1% (w/v) CHAPS, n = 4) was 6.72 ± 0.04 and the Kd (HSP72; 10 nM probe, 0.1% (w/v) CHAPS, read-out: KD) was 194 nM. It also gave a pKD (HSP72; 0.01% (v/v) Triton X-100, n = 3) of 6.83, a Kd (HSP72; 0.01% (v/v) Triton X-100, read-out: KD) of 150 nM and a Kd (HSP72; without BAG1, Fig. S7 isotherm, read-out: KD - BAG1) of 183 nM. For the same molecule, the Kd (HSP72/BAG1 complex; 700 nM BAG1) was 141 nM and the “effect of BAG1 on affinity of the probe for HSP72” value (HSP72/BAG1 complex; saturating BAG1 (700 nM)) was “maintained; also recorded: no significant change”.
